Results reported in US6596719B1 (Actelio Pharmaceuticals Ltd., priority 1999, dated 2003).
pIC50: −log10 of the molar value. Where two headings read alike, the source gives them in different places.

What was measured:
[1] = molecular target: T1, human recombinant ETB receptors (Homo sapiens, UniProt P24530); test: Inhibition of endothelin binding to membranes from CHO cells carrying human ET receptors (ETB)
T1 construct: expressed in transfected cells; host or cells: CHO cells (microsomal membranes)
T1 sequence (P24530 27-442): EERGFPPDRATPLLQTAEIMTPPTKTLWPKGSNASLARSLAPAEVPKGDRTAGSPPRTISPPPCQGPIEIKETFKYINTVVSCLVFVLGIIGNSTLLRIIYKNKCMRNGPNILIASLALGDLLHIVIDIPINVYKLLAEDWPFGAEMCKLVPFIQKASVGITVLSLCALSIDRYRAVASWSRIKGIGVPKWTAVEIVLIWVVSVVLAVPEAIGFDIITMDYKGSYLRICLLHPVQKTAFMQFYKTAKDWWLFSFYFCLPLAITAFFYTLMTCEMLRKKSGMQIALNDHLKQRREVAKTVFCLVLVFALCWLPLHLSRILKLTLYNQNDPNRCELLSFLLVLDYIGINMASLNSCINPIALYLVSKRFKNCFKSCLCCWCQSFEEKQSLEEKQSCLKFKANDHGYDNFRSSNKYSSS
Description: 1) Inhibition of Endothelin Binding to Membranes from CHO Cells Carrying Human ET Receptors:
For competition binding studies, membranes of CHO cells expressing human recombinant ETA or ETB receptors were used. Microsomal membranes from recombinant CHO cells were prepared and the binding assay made as previously described (Breu V., et al, FEBS Lett 1993; 334:210).
The assay was performed in 200 uL 50 mM Tris/HCl buffer, pH 7.4, including 25 mM MnCl2, 1 mM EDTA and 0.5% (w/v) BSA in polypropylene microtiter plates. […]. […] After two h, the membranes were filtered on, filterplates containing GF/C filters (Unifilterplates from Canberra Packard S. A. Zürich, Switzerland). To each well, 50 uL of scintillation cocktail was added (MicroScint 20, Canberra Packard S. A. Zürich, Switzerland) and the filter plates counted in a microplate counter (TopCount, Canberra Packard S. A. Zürich, Switzerland).
All the test compounds were dissolved, diluted and added in DMSO. […] […].

[2] = molecular target: T2, human recombinant ETA receptors (Homo sapiens, UniProt P25101); test: Inhibition of endothelin binding to membranes from CHO cells carrying human ET receptors (ETA)
T2 construct: expressed in transfected cells; host or cells: CHO cells (microsomal membranes)
T2 sequence (P25101 21-427): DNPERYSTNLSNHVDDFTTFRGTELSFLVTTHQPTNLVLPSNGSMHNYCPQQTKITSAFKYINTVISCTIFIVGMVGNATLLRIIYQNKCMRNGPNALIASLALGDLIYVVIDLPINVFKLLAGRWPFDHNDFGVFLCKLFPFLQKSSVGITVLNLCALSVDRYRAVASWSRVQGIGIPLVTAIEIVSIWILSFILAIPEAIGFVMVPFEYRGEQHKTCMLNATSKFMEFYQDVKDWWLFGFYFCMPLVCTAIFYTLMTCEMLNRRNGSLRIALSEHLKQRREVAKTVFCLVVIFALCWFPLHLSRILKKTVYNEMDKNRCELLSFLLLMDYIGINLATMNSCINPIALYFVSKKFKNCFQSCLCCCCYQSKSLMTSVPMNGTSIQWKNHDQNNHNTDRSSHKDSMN

[3] = membranes of CHO cells expressing human recombinant ETB receptors, 8 pM [125I]ET-1, 2 h at 20° C.
[4] = membranes of CHO cells expressing human recombinant ETA receptors, 8 pM [125I]ET-1, 2 h at 20° C.

pIC50 [1]	pIC50 [2]	pIC50 [1, 3]	pIC50 [2, 4]	Compound
6.47	6.60			COc1ccccc1Oc1c(NS(=O)(=O)c2ccc(C(C)C)cn2)nc(N2CCOCC2)nc1OCCNS(C)(=O)=O [Example 45, 5-isopropyl-N-[6-(2-methanesulfonylamino-ethoxy)-5-(o-methoxyphenoxy)-2-(N-morpholino)-4-pyrimidinyl]-2-pyridine sulfonamide]
		6.99	6.85	CCCS(=O)(=O)NCCOc1nc(N2CCOCC2)nc(NS(=O)(=O)c2ccc(C(C)C)cn2)c1Oc1ccccc1OC [Example 46, 5-isopropyl-N-[6-(2-(1-propane)sulfonylamino-ethoxy)-5-(o-methoxyphenoxy)-2-(N-morpholino)-4-pyrimidinyl]-2-pyridine sulfonamide]
6.56	5.99			CCCCS(=O)(=O)NCCOc1nc(C(F)(F)F)nc(NS(=O)(=O)c2ccc(C(C)C)cn2)c1Oc1ccccc1OC [Example 49, 5-i.-propyl-N-[6-(2-butanesulfonylamino-ethoxy)-5-(o-methoxyphenoxy)-2-trifluoromethyl-4-pyrimidinyl]pyridine-2-sulfonamide]
6.22	5.62			COc1ccccc1Oc1c(NS(=O)(=O)c2ccc(C(C)C)cn2)nc(C(F)(F)F)nc1OCCNS(=O)(=O)c1cccs1 [Example 54, 5-i.-propyl-N-[6-(2-((2-thiophene)-sulfonylamino)-ethoxy)-5-(o-methoxyphenoxy)-2-trifluoromethyl-4-pyrimidinyl]pyridine-2-sulfonamide]
6.79	6.35			COc1ccccc1Oc1c(NS(=O)(=O)c2ccc(C(C)(C)C)cc2)nc(C)nc1OCCNS(=O)(=O)c1cccs1 [Example 62, 4-tert.-butyl-N-[6-(2-(2-thiophenesulfonylamino)-ethoxy)-5-(o-methoxyphenoxy)-2-methyl-4-pyrimidinyl]-benzene sulfonamide]
6.77	6.32			COc1ccccc1Oc1c(NS(=O)(=O)c2ccc(C(C)C)cn2)nc(-c2ncccn2)nc1OCCNS(=O)(=O)c1cccs1 [Example 68, 5-isopropyl-N-[6-(2-(2-thiophenesulfonylamino)-ethoxy)-5-(o-methoxyphenoxy)-2-(2-pyrimidinyl)-4-pyrimidinyl]-2-pyridine sulfonamide]
6.64	6.29			COc1ccccc1Oc1c(NS(=O)(=O)c2ccc(C(C)C)cn2)nc(-c2ccncc2)nc1OCCNS(=O)(=O)c1cccs1 [Example 71]

The remaining lines, values behind:

Compound	pIC50 [1]	pIC50 [2]	pIC50 [1, 3]	pIC50 [2, 4]
CCS(=O)(=O)NCCOc1nc(C2CC2)nc(NS(=O)(=O)c2ccc(C(C)C)cn2)c1Oc1ccccc1OC [Example 43, 5-i-propyl-N-[6-(2-ethanesulfonylamino-ethoxy)-5-(o-methoxyphenoxy)-2-cyclopropyl-pyrimidin-4-yl]-pyridine-2-sulfonamide]	6.42	7.12		
CCS(=O)(=O)NCCOc1nc(C2CC2)nc(NS(=O)(=O)c2ccc(C(C)(C)C)cc2)c1Oc1ccccc1OC [Example 44, 4-tert.-butyl-N-[6-(2-ethanesulfonylamino-ethoxy)-5-(o-methoxyphenoxy)-2-cyclopropyl-pyrimidin-4-yl]-benzene-sulfonamide]			6.49	6.92
COc1ccccc1Oc1c(NS(=O)(=O)c2ccc(C(C)(C)C)cc2)nc(-c2ccncc2)nc1OCCNS(=O)(=O)c1cccs1 [Example 51, 4-tert.-butyl-N-[6-(2-(thiophene-2-sulfonylamino)-ethoxy)-5-(o-methoxyphenoxy)-2-(4-pyridyl)-4-pyrimidinyl]-benzene-sulfonamide]	6.74	5.46		
COc1ccccc1Oc1c(NS(=O)(=O)c2ccc(C)cn2)nc(N2CCOCC2)nc1OCCNS(=O)(=O)c1ccccc1 [Example 57, 5-methyl-N-[6-(2-(benzenesulfonylamino)-ethoxy)-5-(o-methoxyphenoxy)-2-(N-morpholino)-4-pyrimidinyl]-2-pyridine sulfonamide]	6.68	5.79		
CCS(=O)(=O)NCCOc1nc(-c2ccncc2)nc(NS(=O)(=O)c2ccc(C(C)C)cn2)c1Oc1ccccc1OC [Example 73]	6.27	6.63		
